The subject of one data set is KB cells. The data set is described as follows: KB cell proliferation / cytotoxicity (CellTiter-Blue). Type of data set: cell-based. Particulars: Homo sapiens, KB, 72 h, 72 h. The procedure:
Cancer cell lines were obtained from the American Type Culture Collection (Rockville, MD, USA) and were cultured according to the supplier’s instructions. Briefly, human KB epidermal carcinoma cells were grown in Dulbecco minimal essential medium (DMEM) containing 4.5 g/L glucose supplemented with 10% fetal calf serum (FCS) and 1% glutamine, 100 UI penicillin, 100 µg/mL streptomycin and 1.5 µg/mL fungizone and maintained at 37 °C in a humidified atmosphere containing 5% CO2. Cell viability was assessed using Promega CellTiter-Blue TM reagent according to the manufacturer’s instructions. Cells were seeded in 96-well plates (5 × 10^3 cells/well) containing […]. After 24 h of culture, the cells were supplemented with […] of the studied compound dissolved in DMSO (less than 0.1% in each preparation). After 72 h of incubation, […] of resazurin was added for 2 h before recording fluorescence (λex = 560 nm, λem = 590 nm) using a Victor microtiter plate fluorimeter (Perkin-Elmer, USA).
A general note: Resazurin is reduced to fluorescent resorufin, in cell work by metabolically active cells.

The nature of data set [1]: Bioavailability in plasma after i.p. injection (UHPLC-MS/MS). Type of data set: in vivo. The note with it: mouse, ip, WT mice, 20 mg/kg i.p. The protocol: Before undertaking behavioral studies in Ts65Dn mice, the bioavailability of F-DANDY 5a in plasma after peripheral (intraperitoneal – i.p.) injection in mice was determined. […] The sample preparation and analytical protocol were adapted from Bonneau et al.[38],[39]. […] A 30 min interval was thus selected between time of injection and behavioral assessment.
All plasma and brain homogenate extracts were analyzed by an ultra-high performance liquid chromatography (UHPLC) system coupled to a triple-quadrupole mass spectrometer (Dionex Ultimate 3000 RSLC system coupled to a TSQ Vantage EMR, Thermo Scientific, Les Ulis, France). UHPLC separation was performed using a C18 column (HSS T3, 2.1 mm × 150 mm, 1.7 μm, Waters, Guyancourt, France) equipped with a guard column (HSS T3, 2.1 mm × 5 mm, 1.7 μm, Waters, Guyancourt, France) and maintained at 40 °C. The mobile phases were water, 0.1% formic acid (A) and acetonitrile (B). […] A washing step in acetonitrile/isopropanol was added to limit carryover problems. Injection volume was 4 µL and the autosampler was maintained at 6 °C. Ionization was performed with a heated electrospray ionization source in positive mode. The source parameters were set as follows: spray voltage 3350 V, vaporizer temperature 250 °C, sheath gas (N2) pressure 55 psi, auxiliary gas pressure (N2) 25 psi, capillary temperature 350 °C. Analysis was performed under the Selected Reaction Monitoring (SRM) mode using several transitions for each compound at optimized collision energies (see Table SI2 and Figure SI1). […] Data acquisition was performed using ThermoScientific Xcalibur 2.1 software system. All samples were analyzed in triplicate.
Two compounds, V[34] […] Limit of quantification (LOQ) was determined as the lowest point of the calibration curve at 1.6 pg/μL. […] Limit of quantification (LOQ) was determined as the lowest point of the calibration curve at 1.6 pg/mg. […]
Using an optimized Ultra Performance Liquid Chromatography with tandem mass spectrometry (UPLC-MS/MS), compound 5a was subsequently quantified in plasma. […] All samples were analyzed in triplicate.

`Oc1ccc(-c2cnc3[nH]cc(-c4ccc(F)cc4)c3c2)cc1O` [Compound 5a, 3-(4-fluorophenyl)-5-(3,4-dihydroxyphenyl)-1H-pyrrolo[2,3-b]pyridine]: in the data set with KB cells (10^−5 M, read-out: % Growth inhibition 10^−5 M), the inhibition (in general, the relative decrease from the control value, in per cent) at 10 µM was under 50%. The inhibition at 1 µM with KB cells (10^−6 M, read-out: % Growth inhibition 10^−6 M) was 0%. Also, in data set [1] (after slow decrease over 2.5 hours, read-out: plasma level), the concentration at 2.5 h is about 50 ng/mL. Besides, in data set [1] (t = 4.4 min), the concentration at 4.4 min is 312 ng/mL. In data set [1] (t = 5.4 min), this compound displayed a concentration at 5.4 min of 236 ng/mL.

The values are drawn from paper PMC5809559, “DYRK1A inhibition and cognitive rescue in a Down syndrome mouse model are induced by new fluoro-DANDY derivatives” (Scientific Reports, 2018).
